According to patent US20100311691A1, “COMPOSITIONS OF S-ALKYLISOTHIOURONIUM DERIVATIVES FOR TREATING UPPER RESPIRATORY CONGESTION” (priority 2007, published 2010):

Columns and labels:
[1] = system: nasal congestion; conditions: unpublished studies; cited from earlier work
[2] = system: nasal congestion, rhino-sinusitis; experiment: Example 4: case report Patient A (rhino-sinusitis), nasal drops; assay type: in vivo; conditions: for repeated administrations needed: nasal drops
Method: Patient A was admitted with a diagnosis of rhino-sinusitis. […] Clinical examination indicated hyperemia of the nasal mucosa, rhinorrhea, nasal obstruction with narrowing of the lower and medium nasal cornets. The patient was treated with, antibacterial medication, and the sinuses were drained by the introduction of antiseptics. In addition, 2-3 nasal drops of S-ethylisothiouronium diethylphosphate 1% were administered. The patient was treated during 3 days. As a result of the treatment with S-ethylisothiouronium diethylphosphate, an amelioration of the clinical symptoms was achieved 1-2 days earlier than that achieved by the treatment with S-ethylisothiouronium bromide (designated Olysin). Also, the repeated administration of S-ethylisothiouronium diethylphosphate was reduced to 2-3 times per day, and not 4-5 times as was necessary when administering Olysin.

[3] = system: nasal congestion, rhinitis and acute sinusitis; experiment: Example 4: case report Patient B (rhinitis and acute sinusitis), nasal drops; assay type: in vivo
Method: Patient B was admitted with a diagnosis of rhinitis and acute sinusitis. The patient complained of headaches, dizziness, and common cold. […] The radiological examination confirmed acute sinusitis. The patient was treated by puncture of the sinuses with the introduction of antiseptics, Cefazoline 1.0 administered intramuscularly 2 times per day, Loratidin tablets 10 mg and, locally, nasal drops of S-ethylisothiouronium diethylphosphate 2% were used 3-4 times per day. The treatment with S-ethylisothiouronium diethylphosphate led to an amelioration of the clinical symptoms and hyperemia of the nasal mucosa 1-2 days earlier than that obtained by the treatment with Olysin.

[4] = system: upper respiratory tract and oral pharyngeal congestion; experiment: Summary comparison of diethylphosphate and bromide in upper respiratory tract and oral pharyngeal congestion; assay type: in vivo, subjects; conditions: summary statement

| Compound | nasal decongestion [1] | side effects [1] | repeated administrations needed [2] | adverse effects ([3]; 2% nasal drops) | amelioration of clinical symptoms and hyperemia of the nasal mucosa earlier than with Olysin ([3]; 2% nasal drops 3-4 times per day, with Cefazoline, Loratidin, antiseptics) | efficiency in alleviating congestion and symptoms, relative to S-ethylisothiouronium bromide [4] | side effects [4] | adverse effects / tachyphylaxis ([2]; 1% nasal drops) | amelioration of clinical symptoms earlier than with S-ethylisothiouronium bromide (Olysin) ([2]; 2-3 nasal drops of 1%, treated during 3 days, with antibacterial medication and sinus drainage) |
| --- | --- | --- | --- | --- | --- | --- | --- | --- | --- |
| Br.CCSC(=N)N [Olysin, S-ethylisothiouronium bromide] | moderate and short-term nasal decongestions | harmful side effects | 4-5 times per day | – | – | – | – | – | – |
| S-ethylisothiouronium diethylphosphate | – | – | 2-3 times per day | No adverse effects | 1 to 2 days | more efficient than S-ethylisothiouronium bromide | little or no side effects | No adverse effects or tachyphylaxis | 1 to 2 days |
